Assay results published in ChEMBL document CHEMBL1201862, “PubChem BioAssay data set” (2004).
Activity calls are given as the source filed them.

What was measured:
[1] = molecular target: Voltage-dependent T-type calcium channel subunit alpha-1H (Homo sapiens, UniProt O95180); assay: human CACNA1H calcium influx blockade – cell-based, synthetic library set 1, calcium flux (AID 493022); format: functional
[2] = test system: Vero; assay: cells; format: functional; conditions: Chlorocebus sabaeus
[3] = molecular target: T1, Mannose-6-phosphate isomerase (Homo sapiens, UniProt P34949); assay: phosphomannose isomerase inhibition – biochemical, fluorescence intensity, confirmation (AID 1535)
T1 sequence (P34949 whole entry): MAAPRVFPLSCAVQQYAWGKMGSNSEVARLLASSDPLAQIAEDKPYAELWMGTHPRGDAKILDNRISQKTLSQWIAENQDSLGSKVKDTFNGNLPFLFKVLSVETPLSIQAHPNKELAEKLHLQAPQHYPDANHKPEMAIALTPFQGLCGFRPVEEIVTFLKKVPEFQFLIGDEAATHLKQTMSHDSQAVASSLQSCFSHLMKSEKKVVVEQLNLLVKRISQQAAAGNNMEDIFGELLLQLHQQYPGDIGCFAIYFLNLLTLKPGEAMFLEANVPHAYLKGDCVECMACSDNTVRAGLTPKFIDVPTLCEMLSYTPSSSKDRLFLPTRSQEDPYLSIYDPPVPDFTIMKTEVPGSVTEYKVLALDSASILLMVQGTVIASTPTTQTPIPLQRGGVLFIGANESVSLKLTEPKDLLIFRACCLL

[4] = molecular target: Large T antigen (Simian virus 40, UniProt P03070); format: functional, Betapolyomavirus macacae;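 also: Confirmatory-stage PubChem screen for compounds that inhibit SV40 T antigen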
[5] = molecular target: Glucose-6-phosphate 1-dehydrogenase (Homo sapiens, UniProt P11413); assay: inhibition of Homo sapiens G6PD, dose series – biochemical, fluorescence, selectivity assay for P. falciparum G6PD inhibitor project, dose response (AID 504792); format: functional
[6] = molecular target: T1, Mannose-6-phosphate isomerase; assay: MPI inhibition at elevated mannose 6-phosphate – biochemical, fluorescence intensity, high mannose 6-phosphate, primary screen (AID 1220)
[7] = molecular target: Eukaryotic translation initiation factor 4E (Mus musculus, UniProt P63073); assay: blockers of eIF4G binding by eIF4E – biochemical, TR-FRET, dose response (AID 855); format: functional;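 also: potency for disrupting eIF4E binding to eIF4GI seen as loss of FRET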
[8] = molecular target: Phosphomannomutase 2 (Homo sapiens, UniProt O15305); assay: Counter screen SAR assay for PMM2 inhibitors via a fluorescence intensity assay. [Related pubchem assays (depositor defined):AID1545, AID1574]
[9] = molecular target: G-protein coupled receptor 55 (Homo sapiens, UniProt Q9Y2T6); assay: selective activators of receptor GPR55 – imaging, U2OS cells, beta-arrestin-GFP redistribution, primary screen (AID 1961); format: functional
[10] = molecular target: T2, Polyadenylate-binding protein 1 (Homo sapiens, UniProt P11940); assay: PABP inhibition in translation initiation, SAR follow-up (AID 435018); format: functional
[11] = molecular target: T2, Polyadenylate-binding protein 1; assay: blockers of PABP interaction with poly(A) – biochemical, fluorescence polarization, […] (AID 2014)
[12] = molecular target: T3, Eukaryotic translation initiation factor 4H (Homo sapiens, UniProt Q15056); assay: eIF4H binding inhibition – biochemical, uHTS, fluorescence polarization, translation initiation inhibitor project, primary screen (AID 2012)
[13] = molecular target: T3, Eukaryotic translation initiation factor 4H; assay: inhibitors of translation initiation factor eIF4H – SAR follow-up (AID 435011); format: functional
[14] = molecular target: Hexokinase (Trypanosoma brucei, UniProt Q38C41); assay: Confirmation assay for inhibitors of Trypanosoma brucei hexokinase 1-Analogue-first series. [Related pubchem assays (depositor defined):AID1430, AID1632, AID2516, AID2560, AID2579, AID2600, AID449725, AID492951]; format: functional
[15] = molecular target: T4, Kappa-type opioid receptor (Homo sapiens, UniProt P41145); assay: kappa opioid receptor blockers, cell-based, luminescence, beta-arrestin, SAR follow-up (AID 2285); format: functional
[16] = molecular target: T5, Mu-type opioid receptor (Homo sapiens, UniProt P35372); assay: mu opioid receptor blockers – image-based, SAR follow-up (AID 2420); format: functional;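 also: compounds added before stimulation of receptor with agonist DAMGO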
[17] = molecular target: T5, Mu-type opioid receptor; assay: mu opioid receptor activators, image-based, SAR follow-up (AID 2352); format: functional
[18] = molecular target: T6, Delta-type opioid receptor (Homo sapiens, UniProt P41143); assay: delta opioid receptor blockers – image-based, SAR follow-up (AID 2357); format: functional
[19] = molecular target: T6, Delta-type opioid receptor; assay: DOR agonists, SAR follow-up, image-based (AID 2370); format: functional
[20] = molecular target: T4, Kappa-type opioid receptor; assay: kappa opioid receptor activation potency – imaging, image-based, SAR follow-up (AID 2359); format: functional
[21] = molecular target: T4, Kappa-type opioid receptor; assay: kappa opioid receptor blockers, image-based, SAR follow-up (AID 2348); format: functional

T4 sequence (P41145 whole entry): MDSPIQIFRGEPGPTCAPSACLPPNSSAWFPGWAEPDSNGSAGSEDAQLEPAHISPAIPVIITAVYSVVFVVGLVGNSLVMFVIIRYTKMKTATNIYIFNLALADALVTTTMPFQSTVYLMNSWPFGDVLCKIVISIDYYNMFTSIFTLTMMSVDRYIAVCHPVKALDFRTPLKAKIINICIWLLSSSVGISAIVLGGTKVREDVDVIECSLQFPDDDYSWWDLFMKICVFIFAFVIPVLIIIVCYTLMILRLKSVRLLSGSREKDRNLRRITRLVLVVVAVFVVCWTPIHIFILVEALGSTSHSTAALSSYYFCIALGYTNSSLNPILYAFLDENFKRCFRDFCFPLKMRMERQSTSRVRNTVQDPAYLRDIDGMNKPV
T5 sequence (P35372 whole entry): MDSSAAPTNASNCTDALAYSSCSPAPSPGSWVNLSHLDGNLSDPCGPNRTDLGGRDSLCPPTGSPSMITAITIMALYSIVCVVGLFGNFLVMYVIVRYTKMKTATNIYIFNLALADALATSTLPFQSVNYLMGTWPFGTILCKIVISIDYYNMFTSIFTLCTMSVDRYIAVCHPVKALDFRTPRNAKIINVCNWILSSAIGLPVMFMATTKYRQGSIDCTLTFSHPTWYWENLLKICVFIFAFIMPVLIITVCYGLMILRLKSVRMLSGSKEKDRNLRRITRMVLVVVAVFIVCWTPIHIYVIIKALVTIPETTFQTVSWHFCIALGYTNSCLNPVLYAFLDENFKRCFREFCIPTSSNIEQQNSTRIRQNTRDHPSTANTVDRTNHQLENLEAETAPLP
T6 sequence (P41143 whole entry): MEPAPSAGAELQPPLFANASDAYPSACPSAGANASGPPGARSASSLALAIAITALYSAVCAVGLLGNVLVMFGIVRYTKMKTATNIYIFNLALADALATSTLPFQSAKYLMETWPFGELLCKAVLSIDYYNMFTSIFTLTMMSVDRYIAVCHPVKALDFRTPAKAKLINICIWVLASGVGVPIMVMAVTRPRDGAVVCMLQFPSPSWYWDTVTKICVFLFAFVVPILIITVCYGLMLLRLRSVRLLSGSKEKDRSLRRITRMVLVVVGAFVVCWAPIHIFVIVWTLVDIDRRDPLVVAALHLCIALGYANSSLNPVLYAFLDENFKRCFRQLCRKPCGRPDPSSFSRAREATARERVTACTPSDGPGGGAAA
T2 sequence (P11940 whole entry): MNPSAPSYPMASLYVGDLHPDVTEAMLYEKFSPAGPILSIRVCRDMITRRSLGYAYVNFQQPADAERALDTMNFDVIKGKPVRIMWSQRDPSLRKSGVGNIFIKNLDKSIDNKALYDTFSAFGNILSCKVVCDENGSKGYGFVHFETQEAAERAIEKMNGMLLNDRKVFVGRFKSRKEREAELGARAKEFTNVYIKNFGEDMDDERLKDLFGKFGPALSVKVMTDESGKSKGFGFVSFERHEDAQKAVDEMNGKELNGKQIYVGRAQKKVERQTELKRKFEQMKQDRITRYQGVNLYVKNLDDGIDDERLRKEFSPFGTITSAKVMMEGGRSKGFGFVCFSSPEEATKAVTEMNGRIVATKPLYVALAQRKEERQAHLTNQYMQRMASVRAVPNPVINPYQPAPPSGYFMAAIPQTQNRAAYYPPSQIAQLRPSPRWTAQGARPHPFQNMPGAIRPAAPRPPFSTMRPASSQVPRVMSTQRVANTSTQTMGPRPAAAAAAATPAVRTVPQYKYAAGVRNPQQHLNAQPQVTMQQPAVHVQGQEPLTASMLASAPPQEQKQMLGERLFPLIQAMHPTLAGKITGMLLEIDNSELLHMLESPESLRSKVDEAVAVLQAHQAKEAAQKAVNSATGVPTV
Sequence of G-protein coupled receptor 55 (Q9Y2T6 whole entry): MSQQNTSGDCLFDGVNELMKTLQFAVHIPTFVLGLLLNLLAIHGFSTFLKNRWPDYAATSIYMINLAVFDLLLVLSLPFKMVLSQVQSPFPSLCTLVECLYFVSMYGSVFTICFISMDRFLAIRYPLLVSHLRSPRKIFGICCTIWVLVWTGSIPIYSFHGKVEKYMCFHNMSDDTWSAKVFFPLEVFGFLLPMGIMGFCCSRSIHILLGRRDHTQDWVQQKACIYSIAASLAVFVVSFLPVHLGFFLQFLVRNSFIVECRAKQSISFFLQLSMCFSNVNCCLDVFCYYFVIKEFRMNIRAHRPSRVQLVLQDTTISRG
Sequence of Eukaryotic translation initiation factor 4E (P63073 whole entry): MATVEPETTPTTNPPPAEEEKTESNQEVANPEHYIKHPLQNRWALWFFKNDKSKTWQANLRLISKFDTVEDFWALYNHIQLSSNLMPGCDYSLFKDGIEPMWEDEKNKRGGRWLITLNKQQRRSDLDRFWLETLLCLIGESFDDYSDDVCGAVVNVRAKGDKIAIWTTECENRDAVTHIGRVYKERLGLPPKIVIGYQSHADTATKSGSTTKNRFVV
Sequence of Glucose-6-phosphate 1-dehydrogenase (P11413 whole entry): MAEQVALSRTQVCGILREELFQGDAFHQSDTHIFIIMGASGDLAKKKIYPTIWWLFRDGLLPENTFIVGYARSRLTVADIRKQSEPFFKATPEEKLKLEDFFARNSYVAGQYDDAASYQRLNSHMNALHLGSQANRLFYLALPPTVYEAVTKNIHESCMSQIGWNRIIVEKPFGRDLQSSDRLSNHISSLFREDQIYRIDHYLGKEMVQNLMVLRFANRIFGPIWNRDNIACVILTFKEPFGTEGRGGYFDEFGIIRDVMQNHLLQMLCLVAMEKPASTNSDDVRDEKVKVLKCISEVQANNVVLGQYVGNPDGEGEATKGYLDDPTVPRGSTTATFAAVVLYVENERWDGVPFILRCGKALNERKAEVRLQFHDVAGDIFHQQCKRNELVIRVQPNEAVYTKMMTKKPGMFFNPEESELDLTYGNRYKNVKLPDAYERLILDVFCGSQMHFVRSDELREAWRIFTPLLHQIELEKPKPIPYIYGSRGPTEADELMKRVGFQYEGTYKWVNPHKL
Sequence of Phosphomannomutase 2 (O15305 whole entry): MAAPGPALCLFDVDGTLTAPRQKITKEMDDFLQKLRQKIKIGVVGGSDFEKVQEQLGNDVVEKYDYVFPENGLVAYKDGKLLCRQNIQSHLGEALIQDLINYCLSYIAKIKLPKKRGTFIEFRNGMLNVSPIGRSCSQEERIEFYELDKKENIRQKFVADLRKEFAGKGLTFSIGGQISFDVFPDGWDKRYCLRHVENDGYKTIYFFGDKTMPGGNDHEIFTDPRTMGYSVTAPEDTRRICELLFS
Sequence of Large T antigen (P03070 whole entry): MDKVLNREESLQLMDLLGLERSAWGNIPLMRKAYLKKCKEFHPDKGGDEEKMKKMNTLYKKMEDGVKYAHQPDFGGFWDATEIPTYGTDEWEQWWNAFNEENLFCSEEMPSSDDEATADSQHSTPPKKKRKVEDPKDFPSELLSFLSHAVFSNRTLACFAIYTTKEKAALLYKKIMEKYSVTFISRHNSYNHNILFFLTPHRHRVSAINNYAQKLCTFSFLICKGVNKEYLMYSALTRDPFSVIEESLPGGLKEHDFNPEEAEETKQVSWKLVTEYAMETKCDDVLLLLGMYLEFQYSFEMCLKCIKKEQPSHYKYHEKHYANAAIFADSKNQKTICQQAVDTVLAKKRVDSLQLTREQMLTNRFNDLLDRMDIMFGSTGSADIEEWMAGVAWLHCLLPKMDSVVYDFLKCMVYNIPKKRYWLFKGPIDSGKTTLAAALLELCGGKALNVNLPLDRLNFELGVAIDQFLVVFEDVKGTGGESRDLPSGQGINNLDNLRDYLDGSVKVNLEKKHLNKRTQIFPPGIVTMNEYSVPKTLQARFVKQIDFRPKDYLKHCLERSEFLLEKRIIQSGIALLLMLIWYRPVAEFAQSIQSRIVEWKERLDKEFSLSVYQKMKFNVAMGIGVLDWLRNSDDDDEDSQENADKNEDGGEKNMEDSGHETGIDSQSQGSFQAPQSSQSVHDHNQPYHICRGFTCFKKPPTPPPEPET
Sequence of Hexokinase (Q38C41 whole entry): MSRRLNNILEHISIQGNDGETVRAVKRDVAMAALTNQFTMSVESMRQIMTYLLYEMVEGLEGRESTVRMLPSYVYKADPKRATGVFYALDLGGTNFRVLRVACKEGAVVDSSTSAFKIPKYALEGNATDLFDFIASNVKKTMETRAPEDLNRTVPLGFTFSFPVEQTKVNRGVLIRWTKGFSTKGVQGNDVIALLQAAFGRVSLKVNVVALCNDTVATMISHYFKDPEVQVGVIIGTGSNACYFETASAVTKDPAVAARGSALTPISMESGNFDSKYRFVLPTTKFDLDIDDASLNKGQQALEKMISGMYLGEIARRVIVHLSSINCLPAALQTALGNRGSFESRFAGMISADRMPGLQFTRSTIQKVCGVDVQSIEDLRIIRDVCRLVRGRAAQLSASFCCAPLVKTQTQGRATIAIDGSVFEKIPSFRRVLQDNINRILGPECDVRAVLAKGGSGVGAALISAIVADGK

`O=C(COc1ccccc1Cl)Nc1nnc(-c2ccc(F)cc2)o1` was tested, and the EC50 [1] was 4.6 µM (active).
With `O=c1c2ccccc2sn1-c1nccs1` the CC50 [2] was > 25 µM (active), the IC50 [3] was 2.65 µM (active) and the IC50 [4] was 12.9 µM (active). For the same compound, the IC50 [5] was 11.3 µM (active), the IC50 [6] was 42.5 µM (active) and the IC50 [7] was 13.5 µM (active). For the same compound, the IC50 [8] was > 100 µM (inactive).
With `Cc1c(C(=O)N(C)C2CCCCC2)sc2ncnc(N3CCN(c4ccccc4)CC3)c12` the EC50 [9] was 5.84 µM (active).
For `O=C(Nc1cccc2ncccc12)c1ccc(Cl)cc1`, the IC50 [10] was 2.79 µM (active), the IC50 [11] was 9.09 µM (active) and the IC50 [12] was > 100 µM (inactive). For the same compound, the IC50 [13] was 6.11 µM (active).
In the case of `COc1ccc(C(=O)Nc2cc(C)ccc2C(=O)O)cc1`, the IC50 [14] is reported as > 25 µM (inactive).
In the case of `O=C(Cn1c(=O)c2cccn2c2cccnc21)NCCCN1CCN(c2ccc(F)cc2)CC1`, the IC50 [15] is reported as > 10 µM (inactive), the IC50 [16] is reported as > 32 µM (inactive) and the EC50 [17] is reported as > 32 µM (inactive). The IC50 [18] was > 32 µM (inactive), the EC50 [19] was > 32 µM (inactive) and the EC50 [20] was > 32 µM (inactive). The IC50 [21] was 15.2 µM (inactive).
